Data: article PMC5428013, “Peptide-Au Clusters Induced Tumor Cells Apoptosis via Targeting Glutathione Peroxidase-1: The Molecular Dynamics Assisted Experimental Studies” (Scientific Reports, 2017)

How the values were obtained:
A549 cells [1] = assay: Cellular location observed by CLSM; format: cell-based, human; settings: 800 µM Au, 48 h, live A549 cells
Description: A549 cells were seeded on glass-bottom dishes (35 mm, MatTek Corporation) for confocal laser scanning microscopy (CLSM) observation. After 24 h, Au25P1_9 was added to culture medium and the final Au dose was 800 µM. The A549 cells were next exposed to Au25P1_9 for 48 h. Then the cells were washed three times with PBS and incubated with 10 µg/mL Hoechst 33342 at 37 °C under darkness for 10 min. Before observation, the culture medium was discarded and the cells were washed three times with PBS, supplemented with fresh culture medium. Finally, in A549 cells, the cell nucleus and Au25P1_9 were imaged under Nikon Ti-e microscope with excitation at wavelengths of 405 nm and 560 nm, respectively. To identify the accurate location of Au25P1_9 in cytoplasm of A549 cells, lysotracker green, a lysosome probe, was added in the medium after cells were incubated with Au25P1_9 for 48 h. The cells were then observed by CLSM with excitation at wavelengths of 488 nm and 560 nm, respectively.

GPx-1 = GPx-1 expression in A549 cells, western blotting; format: cell-based, human; settings: Au dose 0, 100, 200, 400, 800 μM, 48 h
Description: The expression of GPx-1, caspase-3 and PARP from Au25P1_9 treated A549 cells were analyzed by western blotting. A549 cells were prior seeded on 6-well plate (at the density of 1 × 10^5 cells/well) for 24 h. Then the medium was discarded and fresh culture medium with Au25P1_9 at different doses was added to make cells exposed to final Au doses at 0, 100, 200, 400 and 800 μM, respectively. After another 48 h incubation, the cells were harvested and lysed by cell lysis buffer for Western and IP (containing 20 mM Tris-HCl, pH7.5, 150 mM NaCl, 1% Triton X-100, sodium pyrophosphate, β-glycerophosphate, EDTA, Na3VO4 and leupeptin), protease inhibitor cocktail tablet and 1 mM PMSF for 15 min on a shaker at 4 °C. The lysed cells were collected and centrifuged for 15 min at 12,000 g to get total protein of cells. The protein dose of each sample was prior quantified, and then loading buffer was added. After boiling for 5 min, the protein samples with equal amount were separated on 12% SDS polyacrylamide gel electrophoresis and then transferred onto the polyvinylidene difluoride (PVDF) membrane. Membrane was blocked by 5% nonfat dried milk prepared in tris(hydroxymethyl)amin omethane-NaCl-Tween 20 (TBST) at room temperature for 1 h, and then incubated with primary antibodies specific to β-actin, Caspase-3, PARP and GPx-1 at 4 °C overnight, respectively. […]

A549 cells [2] = assay: Intracellular ROS level by CLSM (CM-H2DCFDA); format: cell-based, human; settings: Au25P1_9, final Au dose 800 µM, 48 h, 5 µM CM-H2DCFDA
Description: For CLSM observation, cells were prior cultured on glass-bottom dishes. Au25P1_9 was added to culture medium and the final Au dose was 800 µM. After 48 h. the cells were washed three times with PBS and incubated with 5 µM CM-H2DCFDA, at 37 °C under darkness for 30 min. Before CLSM observation, the culture medium was discarded and the cells were washed three times with PBS, supplemented with fresh culture medium. Finally, ROS in cells were highlighted by green fluorescence emission of CM-H2DCFDA, imaged under Nikon Ti-e microscope with excitation at wavelengths of 488 nm. For flow cytometry analysis, cells were prior seeded on 6-well plate (at the density of 1 × 10^5 cells/well) for 24 h. Then the medium was discarded and fresh culture medium containing Au25P1_9 with Au dose at 800 μM was added. For another 48 h incubation, the cells were washed thrice with PBS, and incubated with 5 µM CM-H2DCFDA at 37 °C under darkness for 30 min. After washing with PBS, the cells were collected and suspended in ice cold PBS. Fluorescence intensity of 20,000 events was recorded using an Accuri C6 flow cytometer and the level of intracellular ROS was analyzed by Cflow software.

caspase-3 = assay: Caspase-3 activity assay (Nucview488, CLSM); format: cell-based, human; settings: 800 µM Au, 48 h, 5 µM Nucview488 substrate
Description: A549 cells were seeded on glass-bottom dishes for 24 h, and the Au25P1_9 was added to culture medium and final Au dose was 800 µM. A549 cells were next exposed to Au25P1_9 for 48 h. Then the cells were washed three times with PBS and incubated with 5 µM Nucview488 caspase-3 substrate (which can be cleaved by caspase-3 and release the DNA dye to stain DNA with bright green fluorescence during apoptosis) at room temperature for 30 min. Finally, cells were washed with PBS and observed by CLSM with excitation at wavelengths of 488 nm.

Hela cells = assay: Cell viability assay (CCK-8), Hela; format: cell-based; settings: same condition as A549
Description: Briefly, cells were prior cultured on 96-well plates (at the density of 5 × 10^3 cells/well) for 24 h to allow cells attachment. The cells were treated with different doses of these free peptides (0, 1, 4, 16, 64, 256, 1024 µM) and peptide-Au clusters (0, 50, 100, 200, 400, 800 µM in Au dose) for 48 h, respectively. The cells were washed three times with PBS and then incubated with fresh growth medium containing 10% (v/v) CCK-8 reagent for 1 h at 37 °C for cell viability assay. The absorbance was measured at 450 nm by using a microplate reader (SpectraMAX M2, Sunnyvale, California). Cell viability of untreated cells was set as 100%, and that of treated cells were expressed as a relative percentage of untreated cells. All data were shown as mean percentages ± standard deviation from three independent experiments.

CCYGGPEEEEEVG [Au25P1_9, Au25 cluster coated by nine P1 peptides (…)]
cellular location (A549 cells [1]): red emission can be observed in the cytoplasm of live A549 cells | GPx-1 expression level (GPx-1): GPx-1 level remains stable | intracellular ROS by CLSM (A549 cells [2]): obvious green fluorescence, a sign of increased intracellular ROS | caspase-3 activation (caspase-3): strong Nucview488 emission | change of cell viability (Hela cells): almost negligible
